This is an account of results in US11963936B2, “Method of manufacturing stable emulsions and compositions containing the same” (UNIVERSITY OF FLORIDA RESEARCH FOUNDATION, INC., priority 2013, dated 2024).

Series [1] is described as follows: Creaming / visual shelf stability of emulsions (serum height). The series is classed as physicochemical. As to conditions: 10 wt % oil; for ability of the oil to yield stable emulsions: 1 wt % drug; for time to begin creaming: emulsions of 1 wt % propofol, 1 wt % Pluronic F68. Here is the method: About 10 mL of each emulsion was placed in a 20 mL vial and left undisturbed on a lab bench to explore each emulsion's stability to creaming. Creaming is an instability mechanism where lower density oil droplets rise to the top of the system forming a cream layer with a more clear serum layer below. The emulsions were photographed periodically with a digital camera (Panasonic DMC FH25), and the photographs were analyzed using image processing software (ImageJ) to quantify the degree of creaming. The height of each emulsion phase was measured in number of pixels, and the percentage serum was calculated from the serum height divided by the total emulsion height. The time at which creaming was first observed was used as a measure of each emulsion's stability, and the time at which the emulsion had completely creamed was noted if applicable. A creaming time longer than two years is desired to be considered a commercially viable pharmaceutical emulsion.
Preliminary screening of emulsion stability was conducted by leaving emulsions undisturbed on a shelf and making visual observations at various times. The initial images of the two formulations for each of the five excipient oils are included in the top row of FIG. 3.
Images of the emulsions were digitally measured to determine the serum height as a function of time for all the emulsion systems (FIG. 3). A stable system should not separate into cream and serum phases, so the time at which serum is first observed is considered to be an approximate indicator of the degree of stability.

Series [2] is described as follows: Oil-water partitioning of propofol in equilibrated bulk excipient oil/water mixtures. Format: physicochemical. Conditions: for Cfree: propofol in aqueous phase, 1 wt % drug. The procedure: Oil-water partition coefficients were calculated by equilibrating a mixture of propofol, water, and oil with mass fractions fdrug, faq, and foil, respectively. The drug loading was kept constant at 1 wt %, while oil loadings were chosen to be 5 or 15 wt %. Additional experiments were performed at 10 wt % excipient oil loading for ethyl butyrate and soybean oil because of the major focus on these oils in this work. The water phase was separated and assayed for propofol concentration (cf), and the partition coefficient was obtained from a mass balance, i.e., Mdrug=Vaqcf+KVoilcf (2) where K is the oil-water partition coefficient, Mdrug, Vaq and Voil are the […] and volumes of water and oil, respectively in the system. The mass balance yields the following equation for K:
[formula] where ρaq and ρoil are the densities of water and oil, respectively. Table 2 lists the molecular weight and densities of various oils considered, along with measured aqueous phase drug concentrations and calculated logarithmic oil-water partition coefficients.

For series [3] the following is noted: cited from earlier work.
Series [4] in a line: Propofol partitioning in binary mixtures of excipient oils.
Method: Experiments were performed to measure the drug partitioning of binary mixtures of excipient oils. 1 wt % drug loading and 10 wt % total excipient oil loading were maintained as the experimental basis of all the binary systems formed to compare with Diprivan. The relative fractions of excipient oil were varied between 100 wt % ethyl butyrate and 100 wt % soybean oil. […] These experiments were repeated by replacing soybean oil with olive oil.
The mark [5] stands for this setting: oil-water partition coefficient of propofol, 5% excipient oil.
Where [6] appears, read: oil-water partition coefficient of propofol, 15% excipient oil.

As for `CCCCCCCCCCCCCC(=O)OC(C)C` [Isopropyl myristate (IM), Isopropyl myristate], the “ability of the oil to yield stable emulsions” value (from here on “ability of the oil”) in series [1] is given as “did not yield stable emulsions”. For the same compound, the “time to begin creaming” value in series [1] is “several days or weeks”. Moreover, the Log10K in series [2] (setting [5]) was 3.92; in series [2] (setting [6]), 4.08. The Cfree in series [2] (5% excipient oil) came out at 16.9 mg/L; in series [2] (15% excipient oil), 4.39 mg/L.

`CCCCCCCCCCCCCCCCCC(=O)O` [stearic acid]: in series [3], the pKa entry is “about 4.9”.

For the compound `CCCCCCCCCCCCCCCC(=O)OC(C)C` [Isopropyl palmitate (IP), Isopropyl palmitate], the “ability of the oil” value in series [1] is listed as “did not yield stable emulsions”. In series [1], the “time to begin creaming” value is “several days or weeks”. The Log10K worked out at 3.71 in series [2] (setting [5]) and 4.01 in series [2] (setting [6]). The results for the Cfree in series [2] (5% excipient oil) and in series [2] (15% excipient oil) were 28.1 mg/L and 5.17 mg/L, respectively.

Consider `CCCC(=O)OCC` [Ethyl butyrate (EB), Ethyl butyrate], for which the “ability of the oil” value in series [1] is listed as “did not yield stable emulsions”. The “partition coefficient of propofol compared to soybean oil” value in series [4] was “about 4 fold”. Besides, the “log(K)” value in series [2] (oil-water partition coefficient of propofol) turned out to be 4.3. The Log10K in series [2] (setting [5]) was found to be 4.33; in series [2] (oil-water partition coefficient of propofol, 10% excipient oil), 4.32; in series [2] (setting [6]) it was 4.35. In addition, the Cfree in series [2] (5% excipient oil) was found to be 6.93 mg/L; in series [2] (10% excipient oil) it was 4.60 ± 1.83 mg/L; in series [2] (15% excipient oil) it was 2.48 mg/L.

In the case of `CCCCCCCC(=O)O` [Octanoic acid (OA), Octanoic acid], in series [1], the “ability of the oil” value was “did not yield stable emulsions”. The figures for the Log10K in series [2] (setting [5]) and in series [2] (setting [6]) were 3.65 and 3.76, respectively. The values for the Cfree in series [2] (5% excipient oil) and in series [2] (15% excipient oil) were 33.5 mg/L and 10.0 mg/L, respectively.
